This note sets out measurements from US20080003684A1, “DIAGNOSTIC METHOD FOR MYOPATHY” (priority 2006, published 2008).

Assay [1] has as its system human skeletal muscle. Nature of the assay: Gene set enrichment analysis (GSEA) of muscle microarray data. To be noted: high dose statin treatment, FDR<0.25.
Assay [2] deals with human skeletal muscle. Nature of the assay: Whole genome microarray analysis in muscle biopsies, single-gene analysis. To be noted: high dose statin treatment, criteria 1.5-fold change and p-value <0.05.
In another assay the test system is MYBPH. The assay can be described thus: RealTime Quantitative TaqMan PCR of muscle RNA. It is filed as in vivo, human. Particulars: n=5, p=0.027. The procedure: (§1) Based on a hierarchical cluster analysis (described in Example 1) 20 genes were selected for further RT-PCR control in order to identify a gene expression based fingerprint for statin effect on human skeletal muscle.
(§2) The microarray expression results recorded in the simvastatin group (n=5, for one case there was not enough muscle RNA for PCR) were verified by RealTime Quantitative TaqMan PCR. Previously purified cRNA was used as starting material for cDNA synthesis. A 1000 ng-18 μl aliquote of cRNA was mixed with 1 μl Promega Random Primer (C1181, Promega U.S., Madison, Wis., USA) and incubated in +70° C. for 10 min. The following reagents were added leading to 25 μl total reaction volume: 1 μl of 10 μM dNTP blend (F09892, Applied Biosystems, Foster City, Calif., USA), 1 μl of Promega M-MLV Reverse Transcriptase 200 U/μl (M3682) and 4 μl of M-MLV RT 5× reaction buffer. Finally the incubations were performed in the following order: 10 min in RT, 50 min in 45° C., and, 10 min in 70° C. 10 μl volume was used for PCR reaction, consisting of 2 μl aliquote of 1:10 diluted cDNA sample, and, Abgene ABsolute 2×QPCR ROX mix (AB-1139, Abgene, Epsom, UK). The primer concentrations were 300 nM, probe concentrations for Universal Probe Library (Exiqon, Vedbaek, Denmark) probes 100 nM and for ordinary long probes 200 nM. Finally the PCR reactions were performed in rtPCR system (ABI Prism 7700 Sequence Detection System, Applied Biosystems) having the following PCR procedure: 95° C. for 15 min, and 40 cycles of 95° C. for 15 s and 60° C. for 1 min.

The test system of the next assay is ALOX5AP. Nature of the assay: RealTime Quantitative TaqMan PCR of muscle RNA. It is filed as in vivo, human. To be noted: n=5, p=0.041. The procedure:
as §1, §2
In general terms: Quantitative PCR measures a nucleic acid by following its amplification.

The test system of a further assay is MYL5. Nature of the assay: RealTime Quantitative TaqMan PCR of muscle RNA. It is filed as in vivo, human. Particulars: n=5, p=0.021. The procedure:
as §1, §2

Another assay concerns COL3A1. The assay can be described thus: RealTime Quantitative TaqMan PCR of muscle RNA. The class given is in vivo, human. To be noted: n=5, p=0.026. The protocol: as §1, §2
In another assay the test system is CCL5. Nature of the assay: RealTime Quantitative TaqMan PCR of muscle RNA. The class given is in vivo, human. To be noted: n=5, p=0.011. The protocol:
as §1, §2

Consider `CC(C)c1c(C(=O)Nc2ccccc2)c(-c2ccccc2)c(-c2ccc(F)cc2)n1CC[C@@H](O)C[C@@H](O)CC(=O)O` [atorvastatin], for which, in the assay on human skeletal muscle [1], the “number of pathways up-regulated / affected in GSEA” value is recorded as “no pathways appeared to be affected significantly”. Besides, the “number of genes whose expression changed significantly during the intervention” value in the assay on human skeletal muscle [2] was “five”.

In the case of `CCC(C)(C)C(=O)O[C@H]1C[C@@H](C)C=C2C=C[C@H](C)[C@H](CC[C@@H]3C[C@@H](O)CC(=O)O3)[C@H]21` [simvastatin], in the assay on MYBPH, the “MYBPH expression change by RT-PCR” value is on record as “+49.0 fold”. Also, the “ALOX5AP expression change by RT-PCR” value with ALOX5AP was “+3.6 fold”. Moreover, the “MYL5 expression change by RT-PCR” value with MYL5 is given as “+8.0 fold”. Moreover, the “COL3A1 expression change by RT-PCR” value in the assay with COL3A1 is “+27.1 fold”. Further, the “CCL5 expression change by RT-PCR” value with CCL5 was “+11.9 fold”. For the same molecule, the “number of pathways up-regulated / affected in GSEA” value in the assay with human skeletal muscle [1] worked out at 143 pathways. Also, in the assay on human skeletal muscle [2], the “number of genes up-regulated” value turned out to be 85 genes and the “number of genes whose expression changed significantly during the intervention” value worked out at 111 genes.
